Experiments:
Assay type in all cases: cell-based
Jurkat (JM) cells = assay: Staining of proliferating Jurkat cells with labelling agent and propidium iodide, fluorescence microscopy; settings: 10 μL agent (100 μg pr. mL DMSO) added to 90 μL cells, only exception PI positive cells
Protocol: (§1) Materials and Methods. Jurkat (JM) cells were grown at 37° C. in a humidified air atmosphere with 5% CO2 in RPMI (Invitrogen, #61870) supplemented with 10% heat-inactivated fetal bovine serum (Invitrogen, #10108-165). 90 μL proliferating Jurkat cells (cell density 1.2×10^6, 99% viable determined using the NC-100 NucleoCounter system following the manufacturer's (ChemoMetec A/S) protocol) were added 10 μL NAM (N-(9-acridinyl)maleimide, Sigma, #01665, CAS no. 49759-20-8) dissolved in DMSO (100 μg NAM pr. mL DMSO) and mixed by pipetting. Cells were loaded into a NucleoCassette, containing the DNA stain propidium iodide (PI). The cells were investigated using an Olympus IX50 fluorescence microscope, and images were captured using a Lumenera CCD camera and in-house developed software. PI and NAM fluorescence were detected using, respectively, U-MWG2 (green long pass: 510-550 nm) and U-MNUA2 (UV band pass, 330-385 nm) filter cubes (Olympus).
as §1, with “1.0×10^6,” for “1.2×10^6,”, “(ChemoMetec)” for “(ChemoMetec A/S)”, “CPM (7-diethylamino-3-[4′-maleimidylphenyl]-4-methylcoumarin, Chemodex Ltd.,” for “NAM (N-(9-acridinyl)maleimide, Sigma, #01665,”, “76877-33-3)” for “49759-20-8)”, “CPM” for “NAM”
as §1, with “1.1×10^6, 98%” for “1.2×10^6, 99%”, “(ChemoMetec)” for “(ChemoMetec A/S)”, “PM (N-(1-Pyrenyl)maleimide, Sigma P7908” for “NAM (N-(9-acridinyl)maleimide, Sigma, #01665,”, “42189-56-0)” for “49759-20-8)”, “PM” for “NAM”, “Cells were loaded into a NucleoCassette, containing the DNA stain propidium iodide (PI).” left out
Materials and Methods. […] 90 μL proliferating Jurkat cells (cell density 1.1×10^6, 98% viable determined using the NC-100 NucleoCounter system following the manufacturer's (ChemoMetec) protocol) were added 10 μL CPI (7-diethylamino-3-((4′-(iodoacetyl)amino)phenyl)-4-methylcoumarin, Sigma 78264 CAS no. 76877-34-4) dissolved in DMSO (100 μg CPI pr. mL DMSO) and mixed by pipetting. […] The cells were investigated using an Olympus IX50 fluorescence microscope, and images were captured using a Lumenera CCD camera and in-house developed software. PI and CPI fluorescence were detected using, respectively, U-MWG2 (green long pass: 510-550 nm) and U-MNUA2 (UV band pass, 330-385 nm) filter cubes (Olympus). […]

S. cerevisiae = assay: DACM/PI staining of yeast, fluorescence microscopy; settings: 8 μg/ml DACM, no incubation
Protocol: (§2) Materials and Methods. S. pombe strain Eg328, h^90 smt-0 ura4-D18, (ATCC 90720; Styrkarsdottir U et al. Curr. Genet. 23: 184-186, 1993) was grown in a rotary shaker at 29° C. to a density of 1×10^7 cells/ml in EMM minimal medium (Moreno et al., Methods Enzym. 194: 795-823, 1991) supplemented with 10 mM of L-uridine (Sigma, U3750). S. cerevisiae wild strain was cultivated in YPD medium (Qbiogene, #4001-032) at 29° C. to a density of 5×10^7 cells/ml. S. pombe and S. cerevisiae cells were directly stained with 8 μg/ml DACM (N-(7-dimethylamino-4-methyl-3-coumarinyl)-maleimide, WAKO Pure Chemical Industries, CAS no. 55145-14-7 dissolved in DMSO) and 10 μg/ml propidium iodide (Applichem, #A2261.9010) prior to mounting on a microscope slide. Note: after addition of DACM and PI the cells were immediately analysed for fluorescence (no incubation). Olympus IX50 and NucleoCounter® NC3000™ was used for microscopy, and images were captured using a Lumenera CCD camera and in-house developed software. Propidium iodide and DCAM fluorescence were detected using the U-MWG2 and U-MNUA2 filter cubes of the Olympus microscope and filterset 5 and 1 of the NucleoCounter® NC-3000™.

S. pombe = assay: DACM/PI staining of yeast, fluorescence microscopy; settings: 8 μg/ml DACM, no incubation
Protocol: as §2

Jurkat (A3) cells [1] = assay: DACM staining of exponentially growing versus starved Jurkat cells; settings: viable cells (PI positive gated out); 2 days versus 10 days incubation
Protocol: Materials and Methods. Jurkat (A3) cells were grown in T flasks at 37° C. in a humidified air atmosphere with 5% CO2 in RPMI (Invitrogen, #61870) supplemented with 10% heat-inactivated fetal bovine serum (Invitrogen, #10108-165). To investigate the effect of cell starvation on DACM staining, exponentially proliferating cells from a newly split culture (2 days incubation) were investigated along with cells from a stationary culture (10 days incubation). 1.8 mL proliferating newly split Jurkat cells (cell density 3×10^5, 98% viable) were spun down and resuspended in 95 μL RPMI media and added 5 μL of a mixture of DACM (N-(7-dimethylamino-4-methyl-3-coumarinyl)-maleimide, WAKO Pure Chemical Industries, CAS no. 55145-14-7, 400 μg DACM pr. mL), acridine orange (1.2 μg/mL) and propidium iodide (500 μg/mL) and mixed by pipetting. Immediately after staining cells were loaded into a chamber slide. Images were captured using an in-house developed fluorescence microscope system with a Lumenera CCD camera (2× magnification) and were analysed using in-house developed software.

Jurkat (A3) cells [2] = assay: DACM / annexin V AF594 / SYTOX green staining of nocodazole treated Jurkat cells
Protocol: Materials and Methods. Jurkat (A3) cells were grown in T flasks at 37° C. in a humidified air atmosphere with 5% CO2 in RPMI (Invitrogen, #61870) supplemented with 10% heat-inactivated fetal bovine serum (Invitrogen, #10108-165). In order of investigating the effect of an apoptosis-inducing drug on DACM staining, Jurkat cells were treated with nocodazole (0.5 μM) for 16 hours. Nocodazole treated and untreated control cells were harvested washed and stained with annexin V Alexa Fluor 594 (Invitrogen, #A13203) according to manufacturer's instructions. Then cells were stained with DACM (20 μg/mL) (N-(7-dimethylamino-4-methyl-3-coumarinyl)-maleimide, WAKO Pure Chemical Industries, CAS no. 55145-14-7) and the nonviable stain SYTOX green (0.3 μM) (Invitrogen, #S7020). Immediately after staining with DACM cells were loaded into a chamber slide. The cells were investigated using an Olympus IX50 fluorescence microscope, and images (40× magnification) of the Annexin V Alexa Fluor 594, DACM and SYTOX green stained cells were captured using a Lumenera CCD camera combined with the following filter cubes (Olympus); U-MWG2 (green long pass: 510-550 nm), U-MNUA2 (UV band pass, 330-385 nm) and U-MNIB3 (blue band pass: 470-495 nm). Cells were also investigated using an in-house developed fluorescence microscope system with 2× magnification.

Jurkat cells = assay: JC-1 mitochondrial potential detection apoptosis assay; settings: nocodazole treated Jurkat cells
From the text: FIG. 22 The effect of the apoptotic drug nocodazole on the fluorescence intensity of stained Jurkat cells. 22A+22B) Fluorescence intensity of DACM stained untreated (22A) or nocodazole treated (22B) Jurkat cells. […] 22C+22D) Red vs. green fluorescence of JC-1 stained untreated (22C) and nocodazole treated (22D) Jurkat cells. The JC-1 stain is used for detecting apoptosis. JC-1 form red fluorescing aggregates in the mitochondria of healthy, non-apoptotic cells. In apoptotic cells JC-1 appears in its green monomeric, reduced form. […] This is in accordance with the results obtained using DACM to measure the thiol level; treatment with nocodazole causes a decrease in the fluorescence intensity of a subpopulation of cells.

| SMILES | staining of cells (UV filter) versus PI positive cells (Jurkat (JM) cells) | staining of non-viable PI positive cells (S. cerevisiae) | staining of viable PI negative cells (S. cerevisiae) | staining of non-viable PI positive cells (S. pombe) | staining of viable PI negative cells (S. pombe) | DACM fluorescence intensity, healthy versus starved cells (Jurkat (A3) cells [1]) | DACM fluorescence intensity of viable, non-apoptotic cells (Jurkat (A3) cells [2]; DACM 20 μg/mL) | DACM fluorescence intensity of nonviable cells (Jurkat (A3) cells [2]; SYTOX green positive cells, DACM 20 μg/mL) | DACM fluorescence intensity of apoptotic cells (Jurkat (A3) cells [2]; annexin V positive cells, DACM 20 μg/mL) | induction of apoptosis (mitochondrial depolarisation, JC-1 red/green fluorescence) (Jurkat cells) | overall DACM fluorescence intensity (thiol level) of treated cells versus untreated (Jurkat (A3) cells [2]; nocodazole 0.5 μM for 16 hours) |
| --- | --- | --- | --- | --- | --- | --- | --- | --- | --- | --- | --- |
| Cc1c(N2C(=O)C=CC2=O)c(=O)oc2cc(N(C)C)ccc12 [DACM, N-(7-dimethylamino-4-methyl-3-coumarinyl)-maleimide] | nearly all cells were stained by DACM | stain very weakly with DACM | stain brightly with DACM | stain very weakly with DACM | stain brightly with DACM | higher for healthy (exponential growing) Jurkat cells than the starved Jurkat cells | highest fluorescence intensity | low fluorescence intensity | low fluorescence intensity | – | – |
| COC(=O)Nc1nc2ccc(C(=O)c3cccs3)cc2[nH]1 [nocodazole] | – | – | – | – | – | – | – | – | – | induces apoptosis (measured as depolarisation) in a cell subpopulation | lower than the overall fluorescence intensity of untreated Jurkat cells |

Reference: patent publication US9128097B2, “Method and kit for assessing viable cells” (ChemoMetec A/S, priority 2008, dated 2015)
